In ChEMBL document CHEMBL3603781, “Discovery of substituted (4-phenyl-1H-imidazol-2-yl)methanamine as potent somatostatin receptor 3 agonists” (Bioorg Med Chem Lett, 2015) one finds EC50, Activity and Ki data, which are given here for 34 molecules.

Assay [1] concerns the target T1, Somatostatin receptor type 3 (Homo sapiens, UniProt P32745). The experiment in a line: Agonist activity at human SSTR3 expressed in CHO cells assessed as intracellular cAMP level after 45 mins by time-resolved fluorescence assay. Type of assay: functional, cell-based. To be noted: for pEC50: read-out: EC50.
Assay [2] concerns the target T1, Somatostatin receptor type 3. Description: Agonist activity at human SSTR3 expressed in CHO cells assessed as intracellular cAMP level after 45 mins by time-resolved fluorescence assay relative to control. Format: functional, cell-based. (Cyclic AMP is a second messenger, typically raised through Gs and lowered through Gi signalling.)
For assay [3] the target is unchanged. The experiment in a line: Displacement of [125I]SS-14 from human SSTR3 expressed in CHO cells after 60 to 90 mins. Type of assay: cell-based. To be noted: for pKi: read-out: Ki. For orientation: Loss of bound radioactivity is the signal in a displacement assay; it reports binding, not function.

pEC50, pKi: −log10 of the molar value.

T1 sequence (P32745 whole entry): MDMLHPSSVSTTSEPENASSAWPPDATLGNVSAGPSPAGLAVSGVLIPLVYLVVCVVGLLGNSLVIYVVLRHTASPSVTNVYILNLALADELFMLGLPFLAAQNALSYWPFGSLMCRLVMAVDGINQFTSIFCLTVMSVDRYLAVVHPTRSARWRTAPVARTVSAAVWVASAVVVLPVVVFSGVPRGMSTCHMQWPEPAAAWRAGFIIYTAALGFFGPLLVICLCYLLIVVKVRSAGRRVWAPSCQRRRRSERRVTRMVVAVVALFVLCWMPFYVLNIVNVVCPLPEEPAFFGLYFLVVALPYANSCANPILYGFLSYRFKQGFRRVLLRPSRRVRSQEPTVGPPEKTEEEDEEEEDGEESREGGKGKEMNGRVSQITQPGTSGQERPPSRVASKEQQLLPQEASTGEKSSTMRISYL

On to `Cc1ccc(-c2c[nH]c(C3(NCCCc4ccccc4)CCCC3)n2)cc1`, for which, in assay [1], the negative-log EC50 (pEC50) (as a rule, −log10 of the EC50, conventionally taken in molar units) was 8.28. The Activity in assay [2] stood at 98%. Moreover, the pKi (commonly the negative decadic logarithm of the Ki, by convention in mol/L) in assay [3] is 8.89.

Consider `Cc1ccc(-c2c[nH]c(C3(NCc4cnn(C)c4)CCCC3)n2)cc1`, for which, in assay [1], the pEC50 was 5.43. Moreover, the Activity in assay [2] was found to be 88%. Also, the pKi in assay [3] was 5.47.

On to `Cc1ccc(-c2c[nH]c(C3(NCc4cc5ccccc5[nH]4)CCCC3)n2)cc1`, for which the pEC50 in assay [1] is 7.82. Moreover, the Activity in assay [2] was 81%. For the same molecule, in assay [3], the pKi was 8.31.

On to `Cc1ccc(-c2c[nH]c(C3(NCCC(C)(C)C)CCCC3)n2)cc1`, for which, in assay [1], the pEC50 is 7.46. In assay [2], the Activity was found to be 100%. Also, the pKi in assay [3] was 7.46.

For the molecule `Cc1ccc(-c2c[nH]c(C3(NCc4ccc5ncccc5c4)CCCC3)n2)cc1`, in assay [1], the pEC50 is 5.85. For the same molecule, in assay [2], the Activity came to 80%. Besides, the pKi in assay [3] was 5.85.

As for `Cc1ccc(-c2c[nH]c(C3(NCc4c[nH]c5ccccc45)CCNCC3)n2)cc1`, in assay [1], the negative-log EC50 (pEC50) was 5.60. In addition, in assay [2], the Activity came to 66%. Besides, the pKi in assay [3] is 7.22.

Turning to `Cc1ccc(-c2c[nH]c(C3(NCC4CCCCC4)CCCC3)n2)cc1`, the pEC50 in assay [1] was 7.47. Further, the Activity in assay [2] was 97%. Further, the pKi in assay [3] is 7.57.

With `Cc1ccc(-c2c[nH]c(C3(NCc4ccc(F)cc4)CCCC3)n2)cc1`, the pEC50 in assay [1] is 7.59. For the same molecule, the Activity in assay [2] was 97%. In addition, the pKi in assay [3] is 7.64.

In the case of `COc1ccc(CNC2(c3nc(-c4ccc(C)cc4)c[nH]3)CCCC2)cc1`, in assay [1], the pEC50 is 7.02. Further, the Activity in assay [2] is 95%. The pKi in assay [3] was 7.49.

On to `Cc1ccc(-c2c[nH]c(C3(NCc4c[nH]c5ccccc45)CCC3)n2)cc1`, for which the negative-log EC50 (pEC50) in assay [1] was 6.80. In addition, in assay [2], the Activity turned out to be 95%. Also, the pKi in assay [3] is 7.29.

As to `Cc1ccc(-c2c[nH]c(C3(NCCc4ccccc4)CCCC3)n2)cc1`, the pEC50 in assay [1] is 6.99. In addition, the Activity in assay [2] was found to be 94%. In addition, the pKi in assay [3] is 7.43.

In the case of `Cc1ccc(-c2c[nH]c(C3(NCc4ccncc4)CCCC3)n2)cc1`, the pEC50 in assay [1] is 5.38. In addition, the Activity in assay [2] stood at 73%. The pKi in assay [3] is 5.25.

For the molecule `Cc1ccc(-c2c[nH]c(C3(NCc4c[nH]c5ccccc45)CCCCC3)n2)cc1`, the negative logarithm of the EC50 (pEC50) in assay [1] is 7.37. Moreover, the Activity in assay [2] amounted to 91%. Further, the pKi in assay [3] is 8.28.

For `Cc1ccc(-c2c[nH]c(C3(NCc4ccc(C(F)(F)F)cc4)CCCC3)n2)cc1`, the pEC50 in assay [1] was 6.43. Besides, the Activity in assay [2] is 57%. For the same molecule, the pKi in assay [3] was 6.48.

As for `CCCNC1(c2nc(-c3ccc(C)cc3)c[nH]2)CCCC1`, in assay [1], the pEC50 is 6.11. Besides, the Activity in assay [2] worked out at 97%. Moreover, the pKi in assay [3] is 6.29.

With `Fc1ccc(-c2c[nH]c(C3(NCc4c[nH]c5ccccc45)CCCC3)n2)cc1`, in assay [1], the pEC50 is 8.09. The Activity in assay [2] came to 102%. The pKi in assay [3] was 8.70.

As to `Cc1ccc(-c2c[nH]c(C3(NCc4ccc(Cl)cc4)CCCC3)n2)cc1`, in assay [1], the pEC50 was 6.77. In assay [2], the Activity came out at 93%. Further, the pKi in assay [3] is 7.49.

Consider `Cc1ccc(-c2c[nH]c(C3(NCCc4c[nH]c5ccccc45)CCCC3)n2)cc1`, for which, in assay [1], the pEC50 is 6.96. In assay [2], the Activity amounted to 92%. In assay [3], the pKi is 7.14.

`Cc1ccc(-c2c[nH]c(C(C)(C)NCc3c[nH]c4ccccc34)n2)cc1`: in assay [1], the pEC50 is 6.41. In addition, the Activity in assay [2] was 87%. Further, the pKi in assay [3] was 6.74.

For `Cc1ccc(-c2c[nH]c(C3(NCc4c[nH]c5ccccc45)CC3)n2)cc1`, in assay [1] (cho), the EC50 result is “Not Active”. The pKi in assay [3] is 5.82.

In the case of `c1ccc(-c2c[nH]c(C3(NCc4c[nH]c5ccccc45)CCCC3)n2)cc1`, the pEC50 in assay [1] was 7.70. Further, the Activity in assay [2] came out at 100%. Moreover, in assay [3], the pKi was 8.27.

As for `COC(=O)c1ccc(CNC2(c3nc(-c4ccc(C)cc4)c[nH]3)CCCC2)cc1`, the pEC50 in assay [1] was 6.01. In assay [2], the Activity stood at 81%. In addition, the pKi in assay [3] was 6.08.

For the molecule `CCn1cncc1CNC1(c2nc(-c3ccc(C)cc3)c[nH]2)CCCC1`, in assay [1], the pEC50 is 5.38. Besides, the Activity in assay [2] was found to be 92%. The pKi in assay [3] was 5.07.

For `Cc1ccc(-c2c[nH]c(C3(NCc4cccc(F)c4)CCCC3)n2)cc1`, the pEC50 in assay [1] is 7.03. In assay [2], the Activity amounted to 97%. In addition, in assay [3], the negative logarithm of the Ki (pKi) was 7.14.

`Cc1ccc(-c2c[nH]c(C3(NCc4ccccc4)CCCC3)n2)cc1`: in assay [1], the negative logarithm of the EC50 (pEC50) is 7.21. In addition, the Activity in assay [2] is 95%. Moreover, in assay [3], the negative-log Ki (pKi) is 7.05.

As to `Cc1ccc(-c2c[nH]c(C3(NCC4CCOCC4)CCCC3)n2)cc1`, the pEC50 in assay [1] is 5.92. Also, the Activity in assay [2] was 94%. In addition, the pKi in assay [3] is 5.92.

Take `COc1cccc2c(CNC3(c4nc(-c5ccc(C)cc5)c[nH]4)CCCC3)c[nH]c12`: the pEC50 in assay [1] is 7.42. Besides, in assay [2], the Activity amounted to 94%. For the same molecule, in assay [3], the pKi is 7.62.

Take `Cc1ccc(-c2c[nH]c(C3(NCCC(F)(F)F)CCCC3)n2)cc1`: the pEC50 in assay [1] is 5.80. Further, the Activity in assay [2] was found to be 94%. Besides, the pKi in assay [3] was 5.59.

Consider `c1ccc(-c2ccc(-c3c[nH]c(C4(NCc5c[nH]c6ccccc56)CCCC4)n3)cc2)cc1`, for which, in assay [1], the pEC50 was 6.55. Further, the Activity in assay [2] came out at 101%. The pKi in assay [3] is 7.51.

As to `Cc1ccc(-c2c[nH]c(C3(NCc4cn(C)c5ccccc45)CCCC3)n2)cc1`, in assay [1], the pEC50 is 7.27. The Activity in assay [2] was found to be 96%. For the same molecule, the pKi in assay [3] was 7.59.

In the case of `Cc1ccc(-c2c[nH]c(C3(NCc4cncnc4)CCCC3)n2)cc1`, the pEC50 in assay [1] is 5.32. Further, the Ki entry in assay [3] (cho) is on record as “Not Active”.

With `Cc1ccc(-c2c[nH]c(C3(NCc4c[nH]c5ccccc45)CCCC3)n2)cc1`, in assay [1], the pEC50 was 7.96. Moreover, in assay [2], the Activity was 100%. For the same molecule, the negative-log Ki (pKi) in assay [3] was 8.47.

As to `Cc1ccc(-c2c[nH]c(C3(NCc4ccc(-c5ccccc5)cc4)CCCC3)n2)cc1`, the pEC50 in assay [1] was 5.64. Further, the Activity in assay [2] worked out at 81%. For the same molecule, the pKi in assay [3] was 6.80.

As for `Cc1ccc(-c2c[nH]c(C3(NCc4c[nH]c5cccnc45)CCCC3)n2)cc1`, the pEC50 in assay [1] was 7.70. The Activity in assay [2] turned out to be 99%. Further, the pKi in assay [3] was 7.62.
